Experimental data published in US12128035B2, “Activating pyruvate kinase R” (Novo Nordisk Health Care AG, priority 2021, dated 2024).

What was measured:
[1] = test system: p50 (PO2 at 50% hemoglobin saturation); assay: Phase 1: p50 (oxygen affinity) in SCD patients; assay type: in vivo, human
Experimental: In SCD patients, the mean absolute change in p50, relative to baseline, measured 24 hours after a single 700 mg dose of Compound 1, was −4 mmHg.
With respect to the bar graphs representing the “Untreated” and “Treated” subjects in the SCD MAD cohort, the bar on the left side represents the P50 measured Pre-Dose, and the bar on the right side represents the P50 measured after 14 days of Compound 1, 300 mg once daily. SCD RBCs have higher P50 at baseline compared to HV RBCs. In the MAD cohort in SCD patients (300 mg QD for 14 days), the mean absolute change in p50, relative to baseline, measured 24 hours after the final dose of Compound 1, was −4 mmHg.
The oxygen affinity of RBCs was measured in patient blood using a Hemox Analyzer (TCS Scientific Corp.), an automatic system for the recording of blood oxygen equilibrium curves and related phenomena. The Hemox Analyzer was used according to standard methods to determine the hemoglobin-oxygen dissociation curves for whole blood samples, numerically characterized by the p50, the partial pressure of oxygen at which hemoglobin is 50% saturated. […] In the case of hemoglobin, the wavelength of maximum absorbance is the measuring wavelength (560 nm), while the reference wavelength is at the isosbestic point at (570 nm). The absorbance at the isosbestic point remains unchanged during the deoxygenation process of the hemoglobin, however the measuring wavelength (560 nm) undergoes a drastic change in absorbance. This change is detected by the electronic circuitry and is plotted as the log/ratio change between the two wavelengths. The log/ratio measurement at 560 nm and 570 nm is utilized to measure the optical absorbance change during the deoxygenation of the hemoglobin. Simultaneously with the measurement of the hemoglobin absorbance, the oxygen concentration is directly measured in the sample using a Clark electrode. […]

[2] = Phase 1 SAD/MAD: safety (adverse events) in healthy volunteers; assay type: in vivo, human
Experimental: In this study, SAD/MAD cohorts are randomized (3 to 1) to receive Compound 1 or placebo (P). Compound 1 was evaluated first in 4 healthy SAD cohorts and 4 healthy MAD (14-day dosing period) cohorts. Based on the safety, and PK/PD profile from HS, Compound 1 is then evaluated in 1 SCD SAD cohort and 2 SCD MAD cohorts. Specifically, based on the safety and pharmacokinetic/pharmacodynamics (PK/PD) profile in healthy volunteer studies, Compound 1 is evaluated in patients (pts) with SCD, first in a single dose (SD or SAD) cohort and then in multiple-dose (MD or MAD) cohorts (14-day and 12-week). Safety assessments include AEs, vital signs, ECGs and laboratory parameters. PK/PD blood sampling was performed on Day 1 (SAD/MAD) and Day 14 (MAD) and up to 72 h after the last dose and at the end-of-study visit. PD parameters included 2,3-DPG, ATP, and p50 in all cohorts with additional PD studies (including oxygen scan) performed only in the SCD cohorts. PD parameters included 2,3-DPG, ATP, p50, RBC deformability with controlled deoxygenation and reoxygenation (Lorrca® oxygen scan) and varying osmolality (Lorrca® osmoscan)). To maintain study blind, pt identifiers were removed when needed.
Outcome Measures Primary Outcome Measures: • 1. Incidence, frequency, and severity of adverse events (AEs) per CTCAE v5.0 of a single ascending dose and multiple ascending doses of Compound 1 in adult healthy volunteers and SCD patients. Incidence of abnormal laboratory test results (clinical chemistry, endocrine hematology, urinalysis). Change from baseline in vital signs (blood pressure, respiratory rate, heart rate, and oral temperature). Incidence of treatment-emergent clinically significant abnormal findings in ECGs. • [Time Frame: Up to 3 weeks of monitoring] • 2. […] Area under the plasma concentration-time curve from time zero until the 24-hour time point (AUC0-24) • [Time Frame: Up to 3 weeks of testing] • 5. Area under the plasma concentration-time curve from time zero until last quantifiable time point (AUC0-last) • [Time Frame: Up to 3 weeks of testing] • 6. Area under the plasma concentration-time curve from time zero to infinity (AUC0-inf) • [Time Frame: Up to 3 weeks of testing] • 7. […] Apparent volume of distribution (Vd/F) • [Time Frame: Up to 3 weeks of testing] • 10. Terminal disposition rate constant (Lz) • [Time Frame: Up to 3 weeks of testing] • 11. […] Secondary Outcome Measures: • 12. Change from baseline in the levels of 2,3-diphosphoglycerate (DPG) and adenosine triphosphate (ATP) in the red blood cells (RBCs) of healthy volunteers and SCD patients after single and multiple doses of Compound 1. • [Time Frame: Up to 3 weeks of testing] • 13. […] Change from baseline heart rate after a single dose of Compound 1 in healthy volunteers and/or SCD subjects • [Time Frame: up to 7 days] • 15. Change from baseline PR after a single dose of Compound 1 in healthy volunteers and/or SCD subjects • [Time Frame: up to 7 days] • 16. Change from baseline QRS (AHR, APR, and AQRS) after a single dose of Compound 1 in healthy volunteers and/or SCD subjects • [Time Frame: up to 7 days] • 17. Change from baseline T-wave morphology after a single dose of Compound 1 in healthy volunteers and/or SCD subjects • [Time Frame: up to 7 days] Exploratory Outcome Measures: • 18. Effect of food on Cmax, AUC0-24/AUClast • 19. Effect of AUClast/AUC0-24, Cmax, minimum plasma concentration (Cmin), peak-to trough ratio, dose linearity, accumulation ratio on safety, PD, and hematologic parameters of interest, as assessed by exposure-response analyses • 20. Effect of 2,3-DPG reduction in RBCs on the oxyhemoglobin dissociation curve (p50; partial pressure of O2 at which 50% of hemoglobin is saturated with O2) after a single dose and after chronic dosing of Compound 1 • 21. Effect of chronic Compound 1 dosing on normal and SCD RBC deformability by osmotic gradient ektacytometry and oxygen gradient ektacytometry • 22. […]

## O=C([C@H](CO)c1ccccc1)N1CC2=C(C1)CN(S(=O)(=O)c1cnc3c(c1)OCCO3)C2 (single isomer, unassigned) [Compound 1]
[1]; SCD 300 mg QD for 14 days, 24 hours after the final dose
  mean absolute change in p50, relative to baseline: −4 mmHg
[1]; SCD single 700 mg, Post-dose (24 hours), median (range), pre-dose 29.4 (26.1, 32.3)
  p50 (Oxygen affinity curve): 25.8 (23.3, 26.8)
[1]; SCD, 24 hours after single 700 mg dose
  mean absolute change in p50, relative to baseline: −4 mmHg
[2]; HS receiving 14 days
  Grade 1 headache (most common AE): 28%
[2]; HS receiving a single dose
  Grade 1 headache (most common AE): 4%
[2]; HV MAD Compound 1 N = 36
  Any TEAE, n (%): 15 (42) n (%)
  Any grade 3 or greater TEAE, n (%): 0 n (%)
  Drug interruption, reduction, or discontinuation due to TEAE, n (%): 0 n (%)
[2]; HV MAD cohorts
  related TEAE of grade 2 or less: headache: 4 n
  related TEAE of grade 2 or less: palpitations: 1 n
  related TEAE of grade 2 or less: somnolence: 1 n
[2]; HV SAD Compound 1 N = 24
  Any TEAE, n (%): 5 (21) n (%)
  Any grade 3 or greater TEAE, n (%): 1 (4) n (%)
  Drug interruption, reduction, or discontinuation due to TEAE, n (%): 0 n (%)
[2]; HV SAD cohorts
  related TEAE of grade 2 or less: headache: 1 n
  related TEAE of grade 2 or less: transient ventricular tachycardia: 1 n
[2]; SAD and MAD cohorts of healthy volunteers
  serious adverse events / AEs leading to withdrawal: No serious adverse events (SAEs) or AEs leading to withdrawal were reported
